Measured values taken from ChEMBL document CHEMBL1201862, “PubChem BioAssay data set” (2004).
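Five concentrations, 48 hours, 96-well plates. Abbreviation: GI50, concentration required for 50% inhibition of growth.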 The source made the active and inactive calls. Rule as the data show it: active = GI50 up to about 1.1 µM and inactive = higher.

How the values were obtained:
Assay in all cases: NCI tumour cell line growth inhibition, 48 h
DLD-1 = system: DLD-1
DMS-114 = system: DMS-114
DMS-273 = system: DMS-273
KM-20L2 = system: KM-20L2
M19-MEL = system: M19-MEL
RXF 631 = system: RXF 631
SNB-78 = system: SNB-78
XF498 = system: XF498
HOP-18 = system: HOP-18

Q: What does the source list for `O=c1[nH]c(=O)n([C@@H]2O[C@H](CO)[C@@H](O)[C@H]2O)cc1F` [5-FLUOROURIDINE]?
A: GI50 (DLD-1): 0.0861 µM (active); GI50 (DMS-114): 10.4 µM (inactive); GI50 (DMS-273): 0.312 µM (active); GI50 (KM-20L2): 0.594 µM (active); GI50 (M19-MEL): 0.481 µM (active); GI50 (RXF 631): 1.05 µM (active); GI50 (SNB-78): 0.211 µM (active); GI50 (XF498): 1.92 µM (inactive)

Q: Which results are given for `N#C/C(=C\c1ccc2[nH]ccc2c1)C(=O)c1ccc(O)c(O)c1`?
A: GI50 (DLD-1): > 100 µM (inactive); GI50 (DMS-114): 81.7 µM (inactive); GI50 (DMS-273): 57.3 µM (inactive); GI50 (HOP-18): 71.4 µM (inactive); GI50 (KM-20L2): 61.5 µM (inactive); GI50 (M19-MEL): > 100 µM (inactive); GI50 (SNB-78): > 100 µM (inactive)

Q: For `CCCCCCC(/C=N/O)C(C)(O)CCC` (configuration not stated), which GI50 (DLD-1) is on record?
A: > 100 µM (inactive)

Q: What about the GI50 (DMS-114) of the same compound?
A: 73.6 µM (inactive)

Q: What about the GI50 (DMS-273) of the same compound?
A: > 100 µM (inactive)

Q: What about the GI50 (KM-20L2) of the same compound?
A: > 100 µM (inactive)

Q: And the GI50 (M19-MEL)?
A: > 100 µM (inactive)

Q: What about the GI50 (SNB-78) of the same compound?
A: > 100 µM (inactive)

Q: What about the GI50 (XF498) of the same compound?
A: 13.2 µM (inactive)

Q: What does the source list for `NC(=O)c1coc(C2OC(CO)C(O)C2O)n1` (configuration not stated)?
A: GI50 (DMS-114): > 100 µM (inactive); GI50 (DMS-273): > 100 µM (inactive); GI50 (HOP-18): > 100 µM (inactive); GI50 (KM-20L2): > 100 µM (inactive); GI50 (M19-MEL): > 100 µM (inactive); GI50 (SNB-78): > 100 µM (inactive)

Q: Which GI50 (DLD-1) does the source give for `O=C1[C@@H]2C(c3ccccc3[N+](=O)[O-])=NO[C@@H]2C(=O)N1c1ccc(Cc2ccc(N3C(=O)[C@H]4C(c5ccccc5[N+](=O)[O-])=NO[C@H]4C3=O)cc2)cc1` here?
A: > 100 µM (inactive)

Q: And the GI50 (DMS-114)?
A: > 100 µM (inactive)

Q: What about the GI50 (HOP-18) of the same compound?
A: > 100 µM (inactive)

Q: And the GI50 (KM-20L2)?
A: > 100 µM (inactive)

Q: What about the GI50 (SNB-78) of the same compound?
A: > 100 µM (inactive)

Q: Which GI50 (DLD-1) does the source give for `OC12c3ccccc3C1CCCCCC21OCCCO1` (configuration not stated) here?
A: > 100 µM (inactive)

Q: What about the GI50 (DMS-114) of the same compound?
A: > 100 µM (inactive)

Q: What about the GI50 (DMS-273) of the same compound?
A: > 100 µM (inactive)

Q: And the GI50 (HOP-18)?
A: > 100 µM (inactive)

Q: And the GI50 (KM-20L2)?
A: > 100 µM (inactive)

Q: What about the GI50 (M19-MEL) of the same compound?
A: > 100 µM (inactive)

Q: And the GI50 (SNB-78)?
A: > 100 µM (inactive)

Q: Which GI50 (DLD-1) does the source give for `CCC(C)(O)c1cn(-c2cccc(S(=O)(=O)O)c2)nn1` (configuration not stated) here?
A: > 100 µM (inactive)

Q: And the GI50 (DMS-114)?
A: > 100 µM (inactive)

Q: And the GI50 (DMS-273)?
A: > 100 µM (inactive)

Q: And the GI50 (HOP-18)?
A: > 100 µM (inactive)

Q: What about the GI50 (KM-20L2) of the same compound?
A: > 100 µM (inactive)

Q: And the GI50 (SNB-78)?
A: > 100 µM (inactive)

Q: What about the GI50 (XF498) of the same compound?
A: > 100 µM (inactive)

Q: What does the source list for `COC(=O)C(C(=O)C(=O)Nc1nnc(S)[nH]1)c1csc(N)n1` (configuration not stated)?
A: GI50 (DLD-1): > 100 µM (inactive); GI50 (DMS-273): > 100 µM (inactive); GI50 (HOP-18): > 100 µM (inactive); GI50 (KM-20L2): > 100 µM (inactive); GI50 (M19-MEL): > 100 µM (inactive); GI50 (RXF 631): > 100 µM (inactive); GI50 (SNB-78): > 100 µM (inactive); GI50 (XF498): > 100 µM (inactive)

Q: For `COc1cc(/C=N\O[Si](C)(C)C(C)(C)C)ccc1O[Si](C)(C)C(C)(C)C`, which GI50 (DLD-1) is on record?
A: 89.9 µM (inactive)

Q: What about the GI50 (DMS-114) of the same compound?
A: 28.1 µM (inactive)

Q: And the GI50 (DMS-273)?
A: > 100 µM (inactive)

Q: And the GI50 (HOP-18)?
A: > 100 µM (inactive)

Q: And the GI50 (KM-20L2)?
A: > 100 µM (inactive)

Q: And the GI50 (M19-MEL)?
A: 74.5 µM (inactive)

Q: What about the GI50 (RXF 631) of the same compound?
A: 30.1 µM (inactive)

Q: And the GI50 (SNB-78)?
A: > 100 µM (inactive)

Q: And the GI50 (XF498)?
A: 38.6 µM (inactive)

Q: Which GI50 (DLD-1) does the source give for `O=C(O)C(C(=O)O)P(=S)(S)c1ccccc1` (configuration not stated) here?
A: > 100 µM (inactive)

Q: What about the GI50 (DMS-114) of the same compound?
A: > 100 µM (inactive)

Q: And the GI50 (DMS-273)?
A: > 100 µM (inactive)

Q: What about the GI50 (KM-20L2) of the same compound?
A: > 100 µM (inactive)

Q: What about the GI50 (M19-MEL) of the same compound?
A: > 100 µM (inactive)

Q: And the GI50 (RXF 631)?
A: > 100 µM (inactive)

Q: What about the GI50 (SNB-78) of the same compound?
A: > 100 µM (inactive)

Q: What about the GI50 (XF498) of the same compound?
A: > 100 µM (inactive)

Q: Which GI50 (DLD-1) does the source give for `Cc1cc(N(CCC#N)CCC#N)ccc1/C=C1N=C(/C=C/c2ccccc2)OC(=O)N\1` here?
A: > 100 µM (inactive)

Q: And the GI50 (DMS-114)?
A: > 100 µM (inactive)

Q: And the GI50 (DMS-273)?
A: > 100 µM (inactive)

Q: What about the GI50 (KM-20L2) of the same compound?
A: > 100 µM (inactive)

Q: What about the GI50 (M19-MEL) of the same compound?
A: > 100 µM (inactive)

Q: What about the GI50 (SNB-78) of the same compound?
A: 43.3 µM (inactive)

Q: What about the GI50 (XF498) of the same compound?
A: > 100 µM (inactive)

Q: Which results are given for `CCOC(=O)CC1(C(=O)OCC)c2[nH]c3ccccc3c2CCN1Cc1ccccc1` (configuration not stated)?
A: GI50 (DLD-1): 24.4 µM (inactive); GI50 (DMS-114): 18.3 µM (inactive); GI50 (DMS-273): 17.3 µM (inactive); GI50 (HOP-18): 23 µM (inactive); GI50 (KM-20L2): 17.1 µM (inactive); GI50 (M19-MEL): 14.3 µM (inactive); GI50 (SNB-78): 40.7 µM (inactive); GI50 (XF498): 24.2 µM (inactive)
